Among the data in the Kinase Knowledgebase extract (Sharma et al. 2016) are IC50 values, retold here.

As a reminder, the IC50 is the concentration needed to halve the response being measured. A higher IC50 goes with weaker potency in that assay.

In brackets after ≈: the same amount, converted by molar mass.

The target of assay [1] is CDK2 (UniProt P24941). The experiment in a line: Enzyme Assay.
For assay [2], the target named is CDK2 (human) (UniProt P24941). The experiment in a line: Cell-Based Assay.
Assay [3] has as its system CDK2 (mouse). The experiment in a line: Cell-Based Assay. The note with it: p388.

`COc1ccc(CNc2nc(Cl)nc3c2ncn3C)cc1` yielded an IC50 in assay [1] of 6 µg/mL (≈ 19.8 µM).
In assay [1], `COc1ccc(CNc2nc(NCCO)nc3c2ncn3C(C)C)cc1` displayed an IC50 of 4 µg/mL (≈ 11.2 µM).
In assay [1], `CC(C)n1cnc2c(Nc3cccc(-c4ccc(C#N)cc4)c3)nc(N(CCO)CCO)nc21` had an IC50 of 0.5 µg/mL (≈ 1.09 µM).
With `CC(C)n1cnc2c(NCc3ccc(Cl)cc3)nc(N(CCN)CCO)nc21`, the IC50 in assay [1] came out at 0.07 µg/mL (≈ 0.173 µM); in assay [2] (mrc 5) it was 1 µg/mL (≈ 2.48 µM).
With `COC(=O)c1ccc(Cn2cnc3c(NCc4ccc(OC)cc4)nc(Cl)nc32)cc1`, the IC50 in assay [1] is > 60 µg/mL.
In assay [1], `COc1ccc(CNc2nc(Cl)nc3[nH]cnc23)cc1` displayed an IC50 of 60 µg/mL (≈ 207 µM).
On to `CC(C)n1cnc2c(NCc3ccc(F)cc3)nc(NC[C@H](C)O)nc21`, for which the IC50 in assay [1] came out at 0.22 µg/mL (≈ 0.614 µM).
`COc1ccc(CNc2nc(N(Cc3cccnc3)CC(C)C#N)nc3c2ncn3C(C)C)cc1` (configuration not stated) registered an IC50 in assay [1] of 1 µg/mL (≈ 2.13 µM).
Turning to `COc1cccc(CNc2nc(Cl)nc3c2ncn3C(C)C)c1`, the IC50 in assay [1] amounted to 0.9 µg/mL (≈ 2.71 µM).
As for `CC(C)n1cnc2c(NCc3ccc(-c4ccccc4)cc3)nc(N(CCO)CCO)nc21`, the IC50 in assay [1] stood at 0.6 µg/mL (≈ 1.34 µM); in assay [2] (caco-2), 3.5 µg/mL (≈ 7.84 µM); in assay [2] (mcf-7) it was 1 µg/mL (≈ 2.24 µM); in assay [2] (ovcar), 2 µg/mL (≈ 4.48 µM); in assay [2] (panc1), 1.3 µg/mL (≈ 2.91 µM).
`COc1ccc(CNc2nc(Cl)nc3c2ncn3CCC(=O)c2cccc3ccccc23)cc1`: the IC50 in assay [1] is > 60 µg/mL.
In assay [1], `CC(C)n1cnc2c(NCc3ccc(Cl)cc3)nc(N(CCO)CCNCCO)nc21` gave an IC50 of 0.43 µg/mL (≈ 0.96 µM).
Still for that read-out and setting: the value for `COc1ccc(CNc2nc(Cl)nc3c2ncn3C(F)(C(F)(F)F)C(F)(F)F)cc1` was > 45 µg/mL.
Turning to `CC(C)n1cnc2c(-c3cccc(OCc4ccccc4)c3)nc(N(CCO)CCO)nc21.CC(C)n1cnc2c(-c3cccc(Oc4ccccc4)c3)nc(N(CCO)CCO)nc21`, the IC50 was found to be 2 µg/mL in assay [2] (mcf-7), 2 µg/mL in assay [2] (ovcar), 2.5 µg/mL in assay [2] (panc1) and 1.5 µg/mL in assay [3].
In the case of `CC(C)n1cnc2c(NCc3ccc(Cl)cc3)nc(N[C@@H](C)CO)nc21`, the IC50 in assay [1] is 0.26 µg/mL (≈ 0.694 µM).
As to `CC(CO)Nc1nc(NCc2ccc(F)cc2)c2ncn(C(C)C)c2n1` (configuration not stated), in assay [1], the IC50 came out at 0.18 µg/mL (≈ 0.502 µM).
On the same count and under the same terms, the value for `CC(C)n1cnc2c(NCc3ccc(Cl)cc3)nc(NC[C@@H](N)Cc3ccccc3)nc21` was 1.07 µg/mL (≈ 2.38 µM); that for `CC(C)n1cnc2c(NCC3CCCCC3)nc(Cl)nc21` was 1 µg/mL (≈ 3.25 µM); that for `CC(C)n1cnc2c(NCc3ccc(C(F)(F)F)cc3)nc(N(CCO)CCO)nc21` was 0.56 µg/mL (≈ 1.28 µM).
In assay [1], `COc1ccc(CNc2nc(Cl)nc3c2ncn3C(C)C)cc1` showed an IC50 of 4 µg/mL (≈ 12.1 µM).
For `CC(C)n1cnc2c(NCc3ccc(Cl)cc3)nc(NCCN)nc21`, the IC50 in assay [1] was determined as 0.35 µg/mL (≈ 0.973 µM); in assay [2] (mrc 5), 1 µg/mL (≈ 2.78 µM).
Turning to `CC(C)Cn1cnc2c(NCc3ccc(C(F)(F)F)cc3)nc(N(CCO)CCO)nc21`, the IC50 in assay [1] amounted to 59 µg/mL (≈ 130 µM).
The compound `CC(N)CNc1nc(NCc2ccc(F)cc2)c2ncn(C(C)C)c2n1` (configuration not stated) gave an IC50 in assay [1] of 0.48 µg/mL (≈ 1.34 µM).
Compound `CC(C)n1cnc2c(NCc3ccc4c(c3)OCO4)nc(N(CCO)CCO)nc21` registered an IC50 in assay [1] of 0.8 µg/mL (≈ 1.93 µM).
`CC(C)[C@@H](CO)Nc1nc(NCc2ccc(F)cc2)c2ncn(C(C)C)c2n1` showed an IC50 in assay [1] of 0.19 µg/mL (≈ 0.492 µM).
Turning to `CC(C)[C@H](CO)Nc1nc(NCc2ccc(F)cc2)c2ncn(C(C)C)c2n1`, in assay [1], the IC50 turned out to be 0.06 µg/mL (≈ 0.155 µM).
The compound `COc1ccc(CNc2nc(N(CC(C)O)CC(C)O)nc3c2ncn3C(C)C)cc1` (configuration not stated) showed an IC50 in assay [1] of 0.8 µg/mL (≈ 1.87 µM).
In assay [1], `CC(C)n1cnc2c(NCc3ccc(-c4ccccc4)cc3)nc(NCC(O)CO)nc21` (configuration not stated) registered an IC50 of 0.6 µg/mL (≈ 1.39 µM).
In assay [1], `COc1ccc(CNc2nc(NCCO)nc3c2ncn3C)cc1` showed an IC50 of 4 µg/mL (≈ 12.2 µM).
Turning to `CC(C)n1cnc2c(NCc3ccc(-c4ccc(C(F)(F)F)cc4)cc3)nc(N(CCO)CCO)nc21`, the IC50 in assay [1] turned out to be 0.6 µg/mL (≈ 1.17 µM).
With `CC(C)n1cnc2c(NCc3ccc(Cl)cc3)nc(N(CCO)CCO)nc21`, the IC50 in assay [1] came to 0.12 µg/mL (≈ 0.296 µM); in assay [2] (mrc 5) it was 3 µg/mL (≈ 7.41 µM).
The compound `COc1ccc(CNc2nc(Cl)nc3c2ncn3CC(C)C)cc1` gave an IC50 in assay [1] of 60 µg/mL (≈ 173 µM).
On to `COc1ccc(CNc2nc(Cl)nc3c2ncn3CCCCl)cc1`, for which the IC50 in assay [1] is > 60 µg/mL.
On the same count and under the same terms, the result for `Cn1cnc2c(NCCO)nc(NCCO)nc21` reads > 60 µg/mL.
Still for that read-out and setting: the value for `COc1ccc(CNc2nc(NCC(O)CN)nc3c2ncn3C(C)C)cc1` (configuration not stated) was 0.6 µg/mL (≈ 1.56 µM).
In the case of `COc1ccc(CNc2nc(N3CCCC(O)C3)nc3c2ncn3C(C)C)cc1` (configuration not stated), the IC50 in assay [1] is 1 µg/mL (≈ 2.52 µM).
Turning to `COc1ccc(CNc2nc(N(CCO)CCO)nc3c2ncn3CCO)cc1`, the IC50 in assay [1] is 0.5 µg/mL (≈ 1.24 µM).
